Assay: gradient 5% acetonitrile 3 min, to 50% in 2 min, to 85% in 15 min, held 3 min, 100 µL/min
Settings: column: Zorbax Extend-C18 2.1 x 50 mm; eluents: water / acetonitrile, 0.1% formic acid
Summary of the method: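 Pure standards were analyzed in mixtures of ~100 molecules using HPLC coupled to a quadrupole time-of-flight mass spectrometer, in both positive and negative ionization mode. Separation used a Zorbax Extend-C18 column (2.1 × 50 mm, 1.8 μm) at 100 μL/min, with water and acetonitrile each containing 0.1% formic acid. Dead and dwell volumes were 40 μL and 900 μL, and data were collected over 3 months. Retention time was read from computationally picked adduct peaks, each inspected manually.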

SMILES	RP-LC retention time [s]
Cc1ccc(Cn2cc(-c3noc(C4CCCC4)n3)nn2)cc1	1070
COc1cc(NC(=O)COc2cc(C(F)(F)F)c3c(C)nn(C)c3n2)cc(OC)c1	1030
Cc1ccc(S(=O)(=O)N2CCCN(c3ccc(=O)n(-c4ccc(F)cc4)n3)CC2)c(C)c1	961
CCOc1ccc(-c2noc(Cn3c(=O)n(-c4ccccc4C)c(=O)c4sccc43)n2)cc1OC	960
COc1ccc(S(=O)(=O)N2CCC(n3cnc4c(C)cccc4c3=O)CC2)cc1OC	881
CCOCCCNC(=O)c1ccc(-c2ccc3c(c2)CCN3C(C)=O)cc1	598
O=C(Cn1c(-c2cccnc2)nc2ccccc21)Nc1nccs1	628
CC(CNC(=O)C1CCN(S(=O)(=O)c2ccc3c(c2)CCCC(=O)N3)CC1)c1ccccc1 (stereo not given)	766
O=C(NCc1ccc(F)cc1F)c1nnn2c1COC(c1ccc(Cl)cc1)C2 (stereo not given)	1040
CCN(CC)S(=O)(=O)c1ccc2c(c1)CC(C(=O)N1CCCCC1)N2C(C)=O (stereo not given)	804
CC(=O)NCc1csc(C2CCCN(C(=O)c3cc(F)cc(F)c3)C2)n1 (stereo not given)	684
COc1ccc(-c2nc(Cc3noc(-c4cccc(F)c4)n3)c(C)o2)cc1	1040
O=C(Nc1ccc(C(F)(F)F)cc1)Nc1cccc(-c2nccnc2N2CCOCC2)c1	956
COCc1nncn1C1CCN(S(=O)(=O)c2cccc(OC)c2)CC1	751
COc1ccc(C)cc1NC(=O)N1CCN(c2cnn3c(C)nnc3c2)CC1	648
O=C(NC1CCCCC1)C1CCN(c2cnc(N3CCCC3)nc2)CC1	649
CCOC(=O)Cc1c(C)nc2cc(-c3ccccc3)nn2c1C	1020
COC(=O)c1cn(CC(=O)Nc2cc(Cl)ccc2OC)c2nc(C)ccc2c1=O	780
CCOc1ccc(-n2cc(C(=O)OC(C)C)c3ccccc3c2=O)cc1	1220
Cc1ccc(NS(=O)(=O)c2cc3n(c2)CCN(C(C)C)C3=O)cc1C	794
Cc1ccc2c(c1)N(S(C)(=O)=O)CCC(C(=O)N1CCCCC1)O2 (stereo not given)	862
O=C(NCCC1CCN(S(=O)(=O)c2ccc(F)cc2)CC1)Nc1ccc(F)cc1	909
Cc1ccc(C(=O)N2CCCCC2c2nc(-c3ccncc3)no2)s1 (stereo not given)	904

SMILES	RP-LC retention time [s]
CC(C)c1cc(C(C)C)n2nc(N)nc2n1	734
O=S(=O)(c1cccn2cnnc12)N(Cc1ccc(F)cc1)c1ccc(F)cc1	834
CNc1nc(SC)n(C)c(=O)c1N=O	667
COc1ccc(NC(=O)N2CCCC2c2nc(-c3ccccc3OC)no2)cc1Cl (stereo not given)	892
NC(=O)C1CCN(C2CC(=O)N(c3ccc(Oc4ccccc4)cc3)C2=O)CC1 (stereo not given)	662
CCOC(=O)c1c(C)[nH]c(C(=O)N2CCC(CC(=O)NCc3ccccc3C)CC2)c1C	802
Cc1cc(C)cc(NC(=O)c2cc(C(C)C)n3nccc3n2)c1	1260
Cc1cccc(S(=O)(=O)Nc2ccc(C3(C(=O)NCC4CCCO4)CC3)cc2)c1 (stereo not given)	828
COc1ccc(Cn2nc3ccc(S(=O)(=O)N4CCCCC4)cn3c2=O)cc1	900
COc1ccc(-c2nnc(-c3ccccc3)o2)cc1S(=O)(=O)N1CCCCC1	1020
Cn1ncc2c3ccccc3n(CCCC(=O)NCCN3CCCCCC3)c2c1=O	645
O=C(NCc1ccc(-c2noc(-c3n[nH]c4c3CCCC4)n2)s1)C1CC1	786
COc1cc(OC)cc(-c2nnc(Cc3nc(-c4cccc(F)c4)no3)o2)c1	907
COc1ccccc1NC(=O)c1cnc2c(c1)c(=O)n(C)c(=O)n2-c1ccccc1	922
O=C(Nc1cnc(N2CCCCCC2)nc1)C1CCC1	778
CCOc1ccc(-c2ccc(=O)n(CCc3nc(-c4ccc5c(c4)OCO5)no3)n2)cc1	986
CCCn1cc(CCNC(=O)C2CCCCC2)c2cccnc21	772
O=C(NCc1nnnn1C1CCCCC1)OCc1ccccc1	757
CC(C)(C)c1csc(-c2csc(S(=O)(=O)NCc3ccccc3F)c2)n1	1220
CCCCN1C(=O)C(C)(C(=O)Nc2ccc(C)cc2C)Oc2cccnc21 (stereo not given)	1090
CCOC(=O)C1=C(CN2CCc3ccccc3C2)NC(=O)NC1c1cccc(OC)c1OC (stereo not given)	660
COc1cccc(NC(=O)N2CCN(Cc3nc4ccc(Cl)cc4o3)CC2)c1	726

Source: the METLIN SMRT retention time set (Domingo-Almenara et al. 2019)
